Laboratory results taken from ChEMBL document CHEMBL5038596, “Design, Synthesis, In Vitro and In Vivo Characterization of Selective NKCC1 Inhibitors for the Treatment of Core Symptoms in Down Syndrome” (J Med Chem, 2021).
Calls of active or inactive are those of the source. The calls are words filed in the database; no cut-off is given here.

What was measured:
[1] = target: T1, Solute carrier family 12 member 2 (Homo sapiens) (UniProt P55011); assay: Inhibition of NKCC1 (unknown origin) transfected in HEK293 cells expressing mbYFPQS plasmid assessed as reduction in Cl- influx at 10 uM incubated for 30 mins by fluorescence multiplate reader analysis; type: cell-based
T1 sequence (whole entry): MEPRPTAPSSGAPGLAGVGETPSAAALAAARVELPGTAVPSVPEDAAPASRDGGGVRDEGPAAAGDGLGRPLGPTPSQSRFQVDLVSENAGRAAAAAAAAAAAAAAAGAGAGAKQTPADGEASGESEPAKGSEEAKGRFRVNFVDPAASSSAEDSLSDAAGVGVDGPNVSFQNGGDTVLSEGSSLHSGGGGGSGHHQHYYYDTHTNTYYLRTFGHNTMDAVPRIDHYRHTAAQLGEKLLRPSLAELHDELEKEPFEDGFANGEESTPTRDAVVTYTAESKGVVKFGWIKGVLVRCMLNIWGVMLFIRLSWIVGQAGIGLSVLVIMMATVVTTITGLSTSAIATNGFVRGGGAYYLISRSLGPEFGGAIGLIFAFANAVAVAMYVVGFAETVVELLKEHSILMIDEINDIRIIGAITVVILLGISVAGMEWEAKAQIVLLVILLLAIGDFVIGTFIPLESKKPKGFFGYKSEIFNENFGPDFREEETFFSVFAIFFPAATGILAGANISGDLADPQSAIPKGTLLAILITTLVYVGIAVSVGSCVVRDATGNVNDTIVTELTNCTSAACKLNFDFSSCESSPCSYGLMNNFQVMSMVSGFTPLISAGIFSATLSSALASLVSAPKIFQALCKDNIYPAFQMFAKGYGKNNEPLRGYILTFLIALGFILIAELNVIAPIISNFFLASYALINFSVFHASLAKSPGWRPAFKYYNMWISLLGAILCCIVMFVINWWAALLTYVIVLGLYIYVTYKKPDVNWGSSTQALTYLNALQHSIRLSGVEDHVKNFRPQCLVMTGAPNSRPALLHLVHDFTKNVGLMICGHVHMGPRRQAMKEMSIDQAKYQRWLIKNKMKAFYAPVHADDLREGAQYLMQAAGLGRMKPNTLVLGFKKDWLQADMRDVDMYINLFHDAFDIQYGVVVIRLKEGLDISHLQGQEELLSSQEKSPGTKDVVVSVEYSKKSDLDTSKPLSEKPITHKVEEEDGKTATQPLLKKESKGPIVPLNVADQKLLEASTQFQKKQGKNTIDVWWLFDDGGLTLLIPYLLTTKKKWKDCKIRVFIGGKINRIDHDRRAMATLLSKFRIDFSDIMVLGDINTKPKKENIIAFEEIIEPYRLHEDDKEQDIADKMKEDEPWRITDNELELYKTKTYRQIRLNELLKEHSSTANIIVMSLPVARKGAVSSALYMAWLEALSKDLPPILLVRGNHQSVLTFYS

[2] = target: T1, Solute carrier family 12 member 2 (Homo sapiens); assay: Inhibition of NKCC1 (unknown origin) transfected in HEK293 cells expressing mbYFPQS plasmid assessed as reduction in Cl- influx at 100 uM incubated for 30 mins by fluorescence multiplate reader analysis; type: cell-based
[3] = Toxicity in Ts65Dn mouse assessed as reduction in body weight at 0.6 mg/kg, ip administered daily for 3 weeks; type: organism-based; conditions: in vivo, 504 h
Mus musculus [4] = assay: Rescue of hyperactivity in Ts65Dn mouse assessed as assessed as reduction in total distance travelled at 0.6 mg/kg, ip measured after 1 to 4 weeks by open field test; type: functional, organism-based; conditions: time 1-4 weeks
[5] = Toxicity in mouse assessed as reduction in body weight at 0.6 mg/kg, ip administered daily for 3 weeks; type: organism-based; conditions: in vivo, 504 h
Mus musculus [6] = assay: Diuretic activity in wild type mouse assessed as increase in urine volume at 0.6 mg/kg, ip measured after 2 hrs; type: functional, organism-based
Mus musculus [7] = assay: Cognitive enhancement effect in Ts65Dn mouse assessed as restoration of short-term working memory by measuring number of correct choices at 0.6 mg/kg, ip measured after 1 to 4 weeks by T-maze test; type: functional, organism-based; conditions: time 1-4 weeks
Mus musculus [8] = assay: Cognitive enhancement effect in Ts65Dn mouse assessed as rescue of electric shock induced freezing response at 0.6 mg/kg, ip measured after 1 to 4 weeks by contextual fear-conditioning test; type: functional, organism-based; conditions: time 1-4 weeks
Mus musculus [9] = assay: Diuretic activity in Ts65Dn mouse assessed as increase in urine volume at 0.6 mg/kg, ip measured after 2 hrs; type: functional, organism-based
[10] = target: T2, Solute carrier family 12 member 5 (Homo sapiens) (UniProt Q9H2X9); assay: Inhibition of KCC2 (unknown origin) transfected in HEK293 cells assessed a reduction in TI influx at 10 uM incubated for 1 hr by fluorescence based analysis relative to control; type: cell-based
T2 sequence (whole entry): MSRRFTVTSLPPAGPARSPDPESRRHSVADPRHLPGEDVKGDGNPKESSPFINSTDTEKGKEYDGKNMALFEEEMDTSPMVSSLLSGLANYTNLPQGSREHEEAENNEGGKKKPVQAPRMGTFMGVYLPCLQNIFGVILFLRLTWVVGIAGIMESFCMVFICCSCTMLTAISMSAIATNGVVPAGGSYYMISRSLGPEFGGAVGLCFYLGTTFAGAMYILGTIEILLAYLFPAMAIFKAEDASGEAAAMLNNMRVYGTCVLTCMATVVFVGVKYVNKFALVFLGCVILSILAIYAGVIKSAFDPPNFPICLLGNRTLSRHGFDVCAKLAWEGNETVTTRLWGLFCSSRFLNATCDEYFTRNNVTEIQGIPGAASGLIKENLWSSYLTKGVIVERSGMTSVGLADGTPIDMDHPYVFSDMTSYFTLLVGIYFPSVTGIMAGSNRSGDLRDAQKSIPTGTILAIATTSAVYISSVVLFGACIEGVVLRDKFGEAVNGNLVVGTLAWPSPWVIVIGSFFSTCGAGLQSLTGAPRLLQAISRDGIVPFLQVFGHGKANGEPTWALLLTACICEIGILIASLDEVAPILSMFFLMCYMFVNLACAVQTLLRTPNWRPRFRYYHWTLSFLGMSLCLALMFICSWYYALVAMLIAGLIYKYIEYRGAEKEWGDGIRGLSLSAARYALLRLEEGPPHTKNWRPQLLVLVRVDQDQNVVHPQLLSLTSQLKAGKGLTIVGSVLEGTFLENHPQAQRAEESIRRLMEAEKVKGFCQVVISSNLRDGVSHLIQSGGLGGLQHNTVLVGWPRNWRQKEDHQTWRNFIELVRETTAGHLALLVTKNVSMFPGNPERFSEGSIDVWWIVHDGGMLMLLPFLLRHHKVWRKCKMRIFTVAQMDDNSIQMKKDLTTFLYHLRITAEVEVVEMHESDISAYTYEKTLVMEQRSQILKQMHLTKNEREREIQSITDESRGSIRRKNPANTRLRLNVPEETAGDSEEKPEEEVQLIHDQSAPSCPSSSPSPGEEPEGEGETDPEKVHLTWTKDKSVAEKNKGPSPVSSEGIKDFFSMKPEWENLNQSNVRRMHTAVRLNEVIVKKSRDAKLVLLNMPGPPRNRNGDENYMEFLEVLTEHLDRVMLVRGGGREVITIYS

Mus musculus [11] = assay: Cognitive enhancement effect in Ts65Dn mouse assessed as rescue of poor novel-discrimination ability by measuring increase in time spent in exploring novel object at 0.6 mg/kg, ip measured after 1 to 4 weeks by novel object recognition test; type: functional, organism-based; conditions: time 1-4 weeks
Primary neuron = assay: Inhibition of NKCC1 in mouse primary hippocampal neurons assessed as reduction of Ca2+ uptake at 100 uM incubated for 15 mins by Fluo-4AM dye based fluorescence analysis; type: cell-based
[12] = Solubility of compound in assay buffer at pH 7.4 assessed as precipitation at 100 uM measured after 15 mins; type: physicochemical; conditions: pH 7.4, 0.25 h
[13] = Solubility of compound in Cl- free hypotonic solution at pH 7.4 assessed as precipitation at 100 uM measured after 30 mins; type: physicochemical; conditions: buffer, pH 7.4, 0.5 h

## CC(C)(C)CCNc1ccc([N+](=O)[O-])cc1S(N)(=O)=O
[1]
  inhibition: inactive

## CCCCCCNc1ccc(C(=O)O)cc1S(=O)(=O)NC
[1]
  inhibition: inactive
[2]
  inhibition: inactive

## COCCCCCCNc1ccc(C(=O)O)cc1S(=O)(=O)N(C)C
[1]
  inhibition: inactive
[2]
  inhibition: inactive

## CN(C)S(=O)(=O)c1cc(C(=O)O)c(O)cc1NCCCCCCCC(F)(F)F
[3]
  Activity: Non-Toxic
Mus musculus [4]
  Activity: Active
[1]
  inhibition: inactive
[5]
  Activity: Non-Toxic
Mus musculus [6]
  Activity: inactive
Mus musculus [7]
  Activity: Active
Mus musculus [8]
  Activity: Active
Mus musculus [9]
  Activity: inactive
[10]
  inhibition: inactive
Mus musculus [11]
  Activity: Active

## CN(C)S(=O)(=O)c1cc(C(=O)O)c(OC2CCCC2)cc1NCCCCCCCC(F)(F)F
Primary neuron
  inhibition: inactive
[12]
  solubility: Insoluble

## CCCCNc1ccc([N+](=O)[O-])cc1S(N)(=O)=O
[1]
  inhibition: inactive

## CCCCCCNc1ccc(C(=O)O)cc1S(=O)(=O)N(C)C
[1]
  inhibition: inactive

## CCCCCCNc1ccc([N+](=O)[O-])cc1S(=O)(=O)N(C)C
[1]
  inhibition: inactive

## CCCCCCCCNc1ccc([N+](=O)[O-])cc1S(=O)(=O)N(C)C
[1]
  inhibition: inactive
[2]
  inhibition: inactive

## COCCCCNc1ccc(C(=O)O)cc1S(=O)(=O)N(C)C
[1]
  inhibition: inactive

## CC(C)(C)CCNc1ccc(C(=O)O)cc1S(N)(=O)=O
[1]
  inhibition: inactive

## O=C(O)c1ccc(NCCCCCCCC(F)(F)F)c(S(=O)(=O)NC2CCCCC2)c1
Primary neuron
  inhibition: inactive
[12]
  solubility: Insoluble

## CN(C)S(=O)(=O)c1cc(C(=O)O)ccc1NCCCC(F)(F)F
[1]
  inhibition: inactive

## CN(C)S(=O)(=O)c1cc([N+](=O)[O-])ccc1NCCC(C)(C)C
[13]
  solubility: Insoluble

## CCCCCCCCNc1ccc(C(=O)O)cc1S(=O)(=O)N(C)C
[1]
  inhibition: inactive

## CNS(=O)(=O)c1cc(C(=O)O)ccc1NCCC(C)(C)C
[1]
  inhibition: inactive

## CN(C)S(=O)(=O)c1cc(C(=O)O)ccc1NCCC(C)(C)C
[1]
  inhibition: inactive
[2]
  inhibition: inactive

## CCCCNc1ccc([N+](=O)[O-])cc1S(=O)(=O)NC
[1]
  inhibition: inactive

## CCCCNc1cc(C(=O)O)cc(S(N)(=O)=O)c1Oc1ccccc1
Mus musculus [6]
  Activity: Active
Mus musculus [9]
  Activity: Active

## O=C(O)c1ccc(NCCCCCCCC(F)(F)F)c(S(=O)(=O)NC2CCCC2)c1
Primary neuron
  inhibition: inactive
[12]
  solubility: Insoluble

## CCCCCCCCNc1ccc(C(=O)O)cc1S(N)(=O)=O
[1]
  inhibition: inactive

## CCCCNc1ccc(C(=O)O)cc1S(N)(=O)=O
[1]
  inhibition: inactive

## CN(C)S(=O)(=O)c1cc(C(=O)O)ccc1NCCCCCC(F)(F)F
[1]
  inhibition: inactive

## O=C(O)c1ccc(NCCCCCCCC(F)(F)F)c(S(=O)(=O)N2CCCCC2)c1
Primary neuron
  inhibition: inactive
[12]
  solubility: Insoluble

## CCCCCCCCNc1ccc([N+](=O)[O-])cc1S(=O)(=O)NC
[1]
  inhibition: inactive
[2]
  inhibition: inactive

## CCCCCCNc1ccc([N+](=O)[O-])cc1S(N)(=O)=O
[1]
  inhibition: inactive

## CCCCCCNc1ccc(C(=O)O)cc1S(N)(=O)=O
[1]
  inhibition: inactive

## CCCCNc1ccc([N+](=O)[O-])cc1S(=O)(=O)N(C)C
[1]
  inhibition: inactive
[13]
  solubility: Insoluble
